This note sets out measurements from PMC8578332 (Scientific Reports, 2021).

Where a SMILES comes first, the peptide text is derived from it. Bridges are numbered along the chain shown (N, C = ends).

Chain of human α7-containing nAChRs (P36544 23-502 limits assumed): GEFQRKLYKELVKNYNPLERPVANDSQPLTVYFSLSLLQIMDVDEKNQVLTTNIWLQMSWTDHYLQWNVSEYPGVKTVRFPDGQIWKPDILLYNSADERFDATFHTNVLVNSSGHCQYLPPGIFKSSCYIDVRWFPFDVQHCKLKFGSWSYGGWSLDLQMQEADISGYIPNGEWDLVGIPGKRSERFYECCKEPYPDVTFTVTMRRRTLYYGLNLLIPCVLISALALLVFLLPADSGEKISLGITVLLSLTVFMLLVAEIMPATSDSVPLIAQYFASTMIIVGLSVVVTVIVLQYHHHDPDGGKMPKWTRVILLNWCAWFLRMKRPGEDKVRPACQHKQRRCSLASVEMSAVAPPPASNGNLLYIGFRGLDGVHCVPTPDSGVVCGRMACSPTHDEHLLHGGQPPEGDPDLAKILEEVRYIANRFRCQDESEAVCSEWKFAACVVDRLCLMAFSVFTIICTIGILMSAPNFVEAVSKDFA

One assay has as its target human α7-containing nAChRs (Homo sapiens, UniProt P36544). Description: cell-based. It counts as cell-based.
Details: not given
One may read the IC50 as the concentration at which inhibition is half-maximal. A high value points to weaker potency. The compound `CC(C)[C@H](NC(=O)[C@@H]1CSSC[C@@H]2NC(=O)[C@@H](NC(=O)[C@@H](N)CO)CSSC[C@H](NC(=O)[C@H](C)NC(=O)[C@@H]3CCCN3C(=O)[C@H](CC(N)=O)NC(=O)[C@H](C)NC(=O)[C@H](C)NC2=O)C(=O)N[C@@H](CCCNC(=N)N)C(=O)N[C@@H](Cc2c[nH]cn2)C(=O)N[C@@H](CC(N)=O)C(=O)N[C@@H](Cc2c[nH]cn2)C(=O)N2CCC[C@H]2C(=O)N1)C(N)=O` [gAusIA [R5A]] (H-SCCAANPACRHNHPCV-NH2; disulfide 2-9, 3-15) had an IC50 of more than 100 µM. In the case of `CC(C)[C@H](NC(=O)[C@@H]1CSSC[C@H](NC(=O)CN)C(=O)N[C@H]2CSSC[C@H](NC(=O)[C@H](C)NC(=O)[C@@H]3CCCN3C(=O)[C@H](CC(N)=O)NC(=O)[C@H](CCCNC(=N)N)NC(=O)[C@H](C)NC2=O)C(=O)N[C@@H](CCCNC(=N)N)C(=O)N[C@@H](Cc2c[nH]cn2)C(=O)N[C@@H](CC(N)=O)C(=O)N[C@@H](Cc2c[nH]cn2)C(=O)N2CCC[C@H]2C(=O)N1)C(N)=O` [rAusIA [S1G]] (H-GCCARNPACRHNHPCV-NH2; disulfide 2-15, 3-9), the “Ratio (IC50 ratio between gAusIA/rAusIA and its corresponding analogues)” value turned out to be 2.00; the “fold decrease (loss) in potency relative to wildtype of same isomer” value is on record as “two”. The compound `CC(C)[C@H](NC(=O)[C@@H]1CSSC[C@H](NC(=O)[C@@H](N)CO)C(=O)N[C@H]2CSSC[C@H](NC(=O)[C@H](C)NC(=O)[C@@H]3CCCN3C(=O)[C@H](CC(N)=O)NC(=O)[C@H](CCCNC(=N)N)NC(=O)[C@H](C)NC2=O)C(=O)N[C@@H](C)C(=O)N[C@@H](Cc2c[nH]cn2)C(=O)N[C@@H](CC(N)=O)C(=O)N[C@@H](Cc2c[nH]cn2)C(=O)N2CCC[C@H]2C(=O)N1)C(N)=O` [rAusIA [R10A]] (H-SCCARNPACAHNHPCV-NH2; disulfide 2-15, 3-9) showed an IC50 of more than 100 µM.

Turning to `CC(C)C[C@@H]1NC(=O)[C@H](CCCNC(=N)N)NC(=O)[C@@H]2CSSC[C@H](NC(=O)[C@@H](N)CO)C(=O)N[C@@H](CSSC[C@@H](C(=O)N[C@H](C(N)=O)C(C)C)NC(=O)[C@@H]3CCCN3C(=O)[C@H](Cc3c[nH]cn3)NC(=O)[C@H](CC(N)=O)NC1=O)C(=O)N[C@@H](C)C(=O)N[C@@H](CCCNC(=N)N)C(=O)N[C@@H](CC(N)=O)C(=O)N1CCC[C@H]1C(=O)N[C@@H](C)C(=O)N2` [gAusIA [H11L]] (H-SCCARNPACRLNHPCV-NH2; disulfide 2-9, 3-15), the IC50 was more than 100 µM and the “antagonistic activity / potency at α7-containing nAChRs in words” value is “inactive”. In turn, `CC(C)[C@H](NC(=O)[C@@H]1CSSC[C@H](NC(=O)[C@@H](N)CO)C(=O)N[C@H]2CSSC[C@H](NC(=O)[C@H](C)NC(=O)[C@H](C)NC(=O)[C@H](CC(N)=O)NC(=O)[C@H](CCCNC(=N)N)NC(=O)[C@H](C)NC2=O)C(=O)N[C@@H](CCCNC(=N)N)C(=O)N[C@@H](Cc2c[nH]cn2)C(=O)N[C@@H](CC(N)=O)C(=O)N[C@@H](Cc2c[nH]cn2)C(=O)N2CCC[C@H]2C(=O)N1)C(N)=O` [rAusIA [P7A]] (H-SCCARNAACRHNHPCV-NH2; disulfide 2-15, 3-9) had an IC50 of more than 100 µM.

Staying with this assay, now noted: SEM.
Compound `CC[C@H](C)[C@@H]1NC(=O)[C@H](CC(N)=O)NC(=O)[C@@H]2CCCN2C(=O)[C@H](CC(N)=O)NC(=O)[C@H](CC(N)=O)NC(=O)[C@H](C(C)C)NC(=O)[C@H](CCCNC(=N)N)NC(=O)[C@@H]2CSSC[C@H](NC(=O)[C@@H](NC(=O)CNC(=O)[C@@H](N)CO)CSSC[C@@H](C(N)=O)NC1=O)C(=O)N[C@@H](CCCNC(=N)N)C(=O)N[C@@H](CC(N)=O)C(=O)N1CCC[C@H]1C(=O)N[C@@H](C)C(=O)N2` [rLsIA [S5R]] (H-SGCCRNPACRVNNPNIC-NH2; disulfide 3-17, 4-9) gave an IC50 of 27 ± 5.3 µM. The same measure, in the same setting: under `C[C@@H]1NC(=O)[C@@H]2CSSC[C@@H](C(N)=O)NC(=O)[C@@H]3CCCN3C(=O)[C@H](Cc3c[nH]cn3)NC(=O)[C@H](CC(N)=O)NC(=O)[C@H](Cc3c[nH]cn3)NC(=O)[C@H](CCCNC(=N)N)NC(=O)[C@H](CSSC[C@H](NC(=O)[C@@H](N)CO)C(=O)N2)NC(=O)[C@H](C)NC(=O)[C@@H]2CCCN2C(=O)[C@H](CC(N)=O)NC1=O` [gAusIA [∆5 ∆16]] (H-SCCANPACRHNHPC-NH2; disulfide 2-8, 3-14) stands 0.241 ± 0.062 µM; under `CC[C@H](C)[C@@H]1NC(=O)[C@H](CC(N)=O)NC(=O)[C@@H]2CCCN2C(=O)[C@H](CC(N)=O)NC(=O)[C@H](CC(N)=O)NC(=O)[C@H](C(C)C)NC(=O)[C@H](CCCNC(=N)N)NC(=O)[C@@H]2CSSC[C@H](NC(=O)[C@@H](NC(=O)CNC(=O)[C@@H](N)CO)CSSC[C@@H](C(N)=O)NC1=O)C(=O)N[C@@H](CO)C(=O)N[C@@H](CCCNC(=N)N)C(=O)N[C@@H](CC(N)=O)C(=O)N1CCC[C@H]1C(=O)N[C@@H](C)C(=O)N2` [rLsIA [∇R6]] (H-SGCCSRNPACRVNNPNIC-NH2; disulfide 3-18, 4-10), 66 ± 4.1 µM; under `CC[C@H](C)[C@@H]1NC(=O)[C@H](CC(N)=O)NC(=O)[C@@H]2CCCN2C(=O)[C@H](CC(N)=O)NC(=O)[C@H](CC(N)=O)NC(=O)[C@H](C(C)C)NC(=O)[C@H](CCCNC(=N)N)NC(=O)[C@@H]2CSSC[C@H](NC(=O)CNC(=O)[C@@H](N)CO)C(=O)N[C@@H](CSSC[C@@H](C(N)=O)NC1=O)C(=O)N[C@@H](CCCNC(=N)N)C(=O)N[C@@H](CC(N)=O)C(=O)N1CCC[C@H]1C(=O)N[C@@H](C)C(=O)N2` [gLsIA [S5R]] (H-SGCCRNPACRVNNPNIC-NH2; disulfide 3-9, 4-17), 0.24 ± 0.04 µM. Still for that read-out and setting: the result for `CC(C)[C@H](NC(=O)[C@@H]1CSSC[C@H](NC(=O)[C@@H](N)CO)C(=O)N[C@H]2CSSC[C@H](NC(=O)[C@H](C)NC(=O)[C@@H]3CCCN3C(=O)[C@H](CC(N)=O)NC(=O)[C@H](CCCNC(=N)N)NC2=O)C(=O)N[C@@H](CCCNC(=N)N)C(=O)N[C@@H](Cc2c[nH]cn2)C(=O)N[C@@H](CC(N)=O)C(=O)N[C@@H](Cc2c[nH]cn2)C(=O)N2CCC[C@H]2C(=O)N1)C(N)=O` [rAusIA [∆4]] (H-SCCRNPACRHNHPCV-NH2; disulfide 2-14, 3-8) reads 11 ± 0.24 µM; that for `CC(C)[C@H](NC(=O)[C@@H]1CSSC[C@@H]2NC(=O)[C@@H](NC(=O)[C@@H](N)CO)CSSC[C@H](NC(=O)[C@H](C)NC(=O)[C@@H]3CCCN3C(=O)[C@H](CC(N)=O)NC(=O)[C@H](CCCNC(=N)N)NC(=O)[C@H](CO)NC2=O)C(=O)N[C@@H](CCCNC(=N)N)C(=O)N[C@@H](Cc2c[nH]cn2)C(=O)N[C@@H](CC(N)=O)C(=O)N[C@@H](Cc2c[nH]cn2)C(=O)N2CCC[C@H]2C(=O)N1)C(N)=O` [gAusIA [A4S]] (H-SCCSRNPACRHNHPCV-NH2; disulfide 2-9, 3-15), 70 ± 12.9 µM; that for `CC(C)[C@H](NC(=O)[C@@H]1CSSC[C@H](NC(=O)[C@@H](N)CO)C(=O)N[C@H]2CSSC[C@H](NC(=O)[C@H](C)NC(=O)[C@@H]3CCCN3C(=O)[C@H](CC(N)=O)NC(=O)[C@H](CO)NC2=O)C(=O)N[C@@H](CCCNC(=N)N)C(=O)N[C@@H](Cc2c[nH]cn2)C(=O)N[C@@H](CC(N)=O)C(=O)N[C@@H](Cc2c[nH]cn2)C(=O)N2CCC[C@H]2C(=O)N1)C(N)=O` [rAusIA [A4S ∆5]] (H-SCCSNPACRHNHPCV-NH2; disulfide 2-14, 3-8), 29 ± 1.1 µM. Regarding `CC(C)[C@H](NC(=O)[C@@H]1CSSC[C@H](NC(=O)[C@@H](N)CO)C(=O)N[C@H]2CSSC[C@H](NC(=O)[C@H](C)NC(=O)[C@@H]3CCCN3C(=O)[C@H](CC(N)=O)NC(=O)[C@H](C)NC2=O)C(=O)N[C@@H](CCCNC(=N)N)C(=O)N[C@@H](Cc2c[nH]cn2)C(=O)N[C@@H](CC(N)=O)C(=O)N[C@@H](Cc2c[nH]cn2)C(=O)N2CCC[C@H]2C(=O)N1)C(N)=O` [rAusIA [∆5]] (H-SCCANPACRHNHPCV-NH2; disulfide 2-14, 3-8), the IC50 is 51 ± 11.6 µM. On the same count and under the same terms, under `C[C@@H]1NC(=O)[C@@H]2CSSC[C@H](NC(=O)[C@H](C)NC(=O)[C@@H]3CCCN3C(=O)[C@H](CC(N)=O)NC1=O)C(=O)N[C@@H](CCCNC(=N)N)C(=O)N[C@@H](Cc1c[nH]cn1)C(=O)N[C@@H](CC(N)=O)C(=O)N[C@@H](Cc1c[nH]cn1)C(=O)N1CCC[C@H]1C(=O)N[C@H](C(N)=O)CSSC[C@H](NC(=O)[C@@H](N)CO)C(=O)N2` [rAusIA [∆5 ∆16]] (H-SCCANPACRHNHPC-NH2; disulfide 2-14, 3-8) stands 27 ± 5.3 µM. Still for that read-out and setting: the result for `CC(C)[C@H](NC(=O)[C@@H]1CSSC[C@H](NC(=O)[C@@H](N)CO)C(=O)N[C@H]2CSSC[C@H](NC(=O)[C@H](C)NC(=O)[C@@H]3CCCN3C(=O)[C@H](CC(N)=O)NC(=O)[C@H](CO)NC(=O)[C@H](C)NC2=O)C(=O)N[C@@H](CCCNC(=N)N)C(=O)N[C@@H](Cc2c[nH]cn2)C(=O)N[C@@H](CC(N)=O)C(=O)N[C@@H](Cc2c[nH]cn2)C(=O)N2CCC[C@H]2C(=O)N1)C(N)=O` [rAusIA [R5S]] (H-SCCASNPACRHNHPCV-NH2; disulfide 2-15, 3-9) reads 70 ± 10 µM; that for `CC(C)[C@H](NC(=O)[C@@H]1CSSC[C@@H]2NC(=O)[C@@H](NC(=O)[C@@H](N)CO)CSSC[C@H](NC(=O)[C@H](C)NC(=O)[C@@H]3CCCN3C(=O)[C@H](CC(N)=O)NC(=O)[C@H](CO)NC2=O)C(=O)N[C@@H](CCCNC(=N)N)C(=O)N[C@@H](Cc2c[nH]cn2)C(=O)N[C@@H](CC(N)=O)C(=O)N[C@@H](Cc2c[nH]cn2)C(=O)N2CCC[C@H]2C(=O)N1)C(N)=O` [gAusIA [A4S ∆5]] (H-SCCSNPACRHNHPCV-NH2; disulfide 2-8, 3-14), 0.428 ± 0.112 µM; that for `CC[C@H](C)[C@@H]1NC(=O)[C@H](CC(N)=O)NC(=O)[C@@H]2CCCN2C(=O)[C@H](CC(N)=O)NC(=O)[C@H](CC(N)=O)NC(=O)[C@H](C(C)C)NC(=O)[C@H](CCCNC(=N)N)NC(=O)[C@@H]2CSSC[C@H](NC(=O)[C@@H](NC(=O)CNC(=O)[C@@H](N)CO)CSSC[C@@H](C(N)=O)NC1=O)C(=O)N[C@@H](C)C(=O)N[C@@H](CO)C(=O)N[C@@H](CC(N)=O)C(=O)N1CCC[C@H]1C(=O)N[C@@H](C)C(=O)N2` [rLsIA [∇A5]] (H-SGCCASNPACRVNNPNIC-NH2; disulfide 3-18, 4-10), 57 ± 14.7 µM. Compound `CC[C@H](C)[C@@H]1NC(=O)[C@H](CC(N)=O)NC(=O)[C@@H]2CCCN2C(=O)[C@H](CC(N)=O)NC(=O)[C@H](CC(N)=O)NC(=O)[C@H](C(C)C)NC(=O)[C@H](CCCNC(=N)N)NC(=O)[C@@H]2CSSC[C@H](NC(=O)CNC(=O)[C@@H](N)CO)C(=O)N[C@@H](CSSC[C@@H](C(N)=O)NC1=O)C(=O)N[C@@H](C)C(=O)N[C@@H](CO)C(=O)N[C@@H](CC(N)=O)C(=O)N1CCC[C@H]1C(=O)N[C@@H](C)C(=O)N2` [gLsIA [∇A5]] (H-SGCCASNPACRVNNPNIC-NH2; disulfide 3-10, 4-18) returned an IC50 of 48 ± 13.2 µM.
